For assay [1], the system named is SCD1 protein production in SZ95-SCD1-HiBit cells. Put plainly: Measurement of SCD1 expression in SZ95-SCD1-HiBit cells (HiBiT assay). Type of assay: cell-based. To be noted: Homo sapiens; for EC50: SZ95-SCD1-HiBit cells, 48h incubation, top concentration 18 μM; for Emax: percent compared to the reference compound (Compound H), 48h, read-out: HiBit Amax. As to the method:
SZ95-SCD1-HiBit cells were seeded in 384-well cell culture white plates at a density of 3000 cells/30 ul. Water is added to edge wells to avoid evaporation. Cells were incubated in a humidified incubator with 5% CO2 at 37° C. overnight. Tested compounds were diluted at a ratio of 1:3 using Agilent BRAVO Automated Liquid Handling Platform and added to cells at final concentrations starting from 18 μM. Compound H was used as a reference compound in each plate. Cells in the assay plate were incubated in a humidified incubator with 5% CO2 at 37° C. for 48h.
The assay plates were removed from the incubator and allowed to equilibrate to room temperature. Nano-Glo® HiBiT Detection Reagent (Promega; a mixture of Nano-Glo HiBiT Detection Buffer, Nano-Glo HiBiT Detection Substrate, and LgBiT protein) was added into assay plates, at a volume equal to cell culture medium in each well. Plates were placed on an orbital shaker at a speed of 300-600 rpm for 10 min at room temperature, and read on an EnVision Plate Reader using luminescence detection with a 1 second read time.
The assay measures the increase in SCD1 protein production in vitro. Amax refers to the percent […] of the tested compound compared to the reference compound.

In assay [2] the test system is SZ95 (immortalized human sebaceous gland cells) cells. Put plainly: Sentinel lipid assay (desaturation index in SZ95 sebocytes). Type of assay: cell-based. The note with it: for EC50: SZ95 cells, 72h incubation, top concentration 10 μM, desaturation index, read-out: SLA EC50; for Emax: percent compared to the reference compound (Compound H), 72h, read-out: SLA Amax. As to the method: SZ95 (immortalized human sebaceous gland cells) cells were seeded in Greiner bio-one 96-well polypropylene plates that were pre-treated with 50 μg/ml Human Plasma Fibronectin (Thermo Fisher Scientific) at a density of 10^4 cells/135 μl. Cells were incubated in a humidified incubator with 5% CO2 at 37° C. overnight. Test compounds were diluted at a ratio of 1:3 and added to cells at final concentrations starting from 10 μM. Compound H was used as a positive control reference compound in each plate. Cells in the assay plate were incubated in a humidified incubator with 5% CO2 at 37° C. for 72h.
Culture medium was removed from the cells and cells in culture plates were washed with ice cold phosphate buffered saline three times. Plates were heat sealed and stored in a −80° C. freezer prior to Sentinel lipid assay.
Sentinel lipid assay: The sentinel lipid assay was used quantify the change in the global desaturation index in SZ95 sebocytes upon administration of LXR agonist compounds. The assay measures a smaller subset of lipid analytes in […] (termed “sentinel lipids”) which would model the global changes the population of both saturated and desaturated lipids in the cells. In order to define this smaller subset of lipids, a complete lipid profile was recorded on dose response curves (eight levels from 4 nM to 10 uM) of Compounds A-N. An elastic net regression model was applied separately to both the saturated and desaturated lipids to determine the minimum combination of coefficients and analytes which could be used to adequately model the total population of lipids. The elastic net model was able to reduce the behavior of 425 lipids to 11 lipids and the correlation between the desaturation indices observed using the complete set of lipids with from the 11 sentinel lipids was 0.96.
A medium throughput assay was created using this reduced set of sentinel lipids. A single batch is defined as triplicate examples of three unique plates (i.e., a single batch of cells is used to create nine plates for LC-MSMS analysis). Lipids were extracted from the cells using a 1:1 mixture of methylene chloride/methanol containing 10 nM of deuterated standards of triglycerides, which are used as internal standards for quantitating the lipid abundance. The lipids were separated prior to mass spectrometric analysis using a five minute HPLC gradient. The abundance of the sentinel lipids and the internal standards are measured using multiple reaction monitor mode (MRM) on a triple quadrupole mass spectrometer. The data was transformed from total ion current to nmoles/10^6 cells, which are multiplied by the coefficients from the elastic net model to determine the effective desaturated and saturated content, and therein the desaturation index of the dosed cells. In order to compare compounds from multiple batches with one another, the measure raw desaturation index was normalized by dividing it by the desaturation index of the DMSO dosed cells, and all data was assessed as the fraction by which the compound increases the desaturation index above 1. The Amax value refers to the percent […] of the tested compound compared to the reference compound.

The nature of assay [3]: In vivo measurement of lowered meibum melting temperature (DSC). To be noted: for Change of Tm: compound versus vehicle, rat meibum, DSC (method gives °C); for Mean ± SEM of Compound (meibum melting temperature): naive Sprague Dawley rats, 1% compound, DSC peak temperature (method gives °C), in °C; for Meibum melting temperature, in words: rat eyes, concentration of 1%, in comparison to vehicle. Also noted: species or system Sprague Dawley rats. As to the method: For specific compounds Compound B and Compound C, the lowering of rat meibum melting temperature was measured in naive Sprague Dawley rats. The test animals were administered either vehicle or Compound B or Compound C, the meibum collected upon administration of the compounds was analyzed by differential scanning calorimetry to measure the melting point. The lowering of meibum melting point in rats administered Compound B or Compound C were compared to vehicle.
Melting properties of meibum were obtained using differential scanning calorimetry thermograms, recorded on a TA Discovery Q5000 (ThermoAnalytical). Samples were sealed in standard 40 μl aluminum pans and subjected to a heat-cool-heat cycle with melting temperatures being recorded on the second heating ramp. The samples were first heated to 150° C. at 30K/min then cooled −30° C. at 30K/min. Next, the sample was heated to 75° C. with an underlying heating rate of 2K/min, a period of modulation of 60 seconds and a temperature amplitude of modulation of 1° C. Dry N2 gas, at a flow rate of 50 mL/min was used to purge the DSC equipment during the measurement. Onset of melting and peak temperatures were recorded with peak temperature quoted as the melting point.
Results from the assay are shown Table 3 and in FIGS. 1 and 2. Results were analyzed using an unpaired t test with Welch's correction.
Background: In DSC, transitions show as peaks or steps in heat flow.

By EC50 is commonly meant the concentration giving half of the maximal effect.

As for `O=C(O)Cn1ccc2c(OCCCN(Cc3cccc(C(F)(F)F)c3Cl)CC(c3ccccc3)c3ccccc3)cccc21` [Compound A, 2-(4-(3-((2-chloro-3-(trifluoromethyl)benzyl)(2,2-diphenylethyl)amino)propoxy)-1H-indol-1-yl)acetic acid], the concentration giving a half-maximal response (EC50) in assay [1] was 4.9 nM; in assay [2], 7.3 nM. Also, the Emax came out at 94% in assay [1] and 104% in assay [2].

Consider `CC(C)(C)N1C(=O)C(Nc2ccc(N3CCCCC3)cc2)=C(c2ccccc2)S1(=O)=O` [Compound B, 2-(tert-butyl)-5-phenyl-4-((4-(piperidin-1-yl)phenyl)amino)isothiazol-3(2H)-one 1,1-dioxide], for which, in assay [3], the “Change of Tm” value is on record as −1.534 ± 0.3522; the “Mean ± SEM of Compound (meibum melting temperature)” value is given as 29.1 ± 0.2363; the “Meibum melting temperature, in words” value is listed as “decrease in meibum melting temperature”. For the same compound, in assay [1], the EC50 came out at 1.8 nM and the Emax amounted to 64%. Also, in assay [2], the EC50 is 168 nM and the Emax amounted to 92%.

With `C[C@H](CCOc1cccc(C(C)(C)C(=O)O)c1)N(Cc1cccc(C(F)(F)F)c1Cl)CC(c1ccccc1)c1ccccc1` [Compound C, (R)-2-(3-(3-((2-chloro-3-(trifluoromethyl)benzyl)(2,2-diphenylethyl)amino)butoxy)phenyl)-2-methylpropanoic acid], in assay [3], the “Change of Tm” value was −1.513 ± 0.6575; the “Mean ± SEM of Compound (meibum melting temperature)” value came to 30.68 ± 0.6065; the “Meibum melting temperature, in words” value is recorded as “decrease in meibum melting temperature”. Besides, in assay [1], it took 0.9 nM to reach a half-maximal effect (EC50) and the Emax is 69.9%. In addition, in assay [2], the EC50 came out at 5.5 nM and the Emax was 90.7%.

In the case of `CC(C)[C@@H]1CN(c2ccc(CO)c(S(C)(=O)=O)c2)CCN1c1ncc(CO)c(C(F)(F)F)n1` [Compound D, (R)-(2-(4-(4-(hydroxymethyl)-3-(methylsulfonyl)phenyl)-2-isopropylpiperazin-1-yl)-4-(trifluoromethyl)pyrimidin-5-yl)methanol], the EC50 stood at 2 nM in assay [1] and 41.8 nM in assay [2]. For the same compound, the Emax is 66.2% in assay [1] and 65.6% in assay [2].

Turning to `CCCc1c(OCCCN(C)c2cnc(CC(=O)O)cn2)ccc2c(C(F)(F)F)noc12` [Compound E, 2-(5-(methyl(3-((7-propyl-3-(trifluoromethyl)benzo[d]isoxazol-6-yl)oxy)propyl)amino)pyrazin-2-yl)acetic acid], the EC50 was found to be 29.4 nM in assay [1] and 69 nM in assay [2]. Moreover, the Emax in assay [1] came to 77.9%; in assay [2] it was 81.8%.

Consider `O=S(=O)(c1ccccc1)N(CC(F)(F)F)c1ccc(C(O)(C(F)(F)F)C(F)(F)F)cc1` [Compound F, N-(4-(1,1,1,3,3,3-hexafluoro-2-hydroxypropan-2-yl)phenyl)-N-(2,2,2-trifluoroethyl)benzenesulfonamide], for which, in assay [1], the EC50 came to 47.4 nM and the Emax came to 76.1%. Besides, in assay [2], the EC50 was 190 nM and the Emax was found to be 89.8%.

With `O=C(O)Cc1cccc(OCCCN(Cc2cccc(C(F)(F)F)c2Cl)CC(c2ccccc2)c2ccccc2)c1` [Compound H, 2-(3-(3-((2-chloro-3-(trifluoromethyl)benzyl)(2,2-diphenylethyl)amino)propoxy)phenyl)acetic acid], in assay [1], a half-maximal effect (EC50) was put at 113 nM and the Emax turned out to be 92%. In assay [2], the EC50 turned out to be 88.1 nM and the Emax worked out at 97.4%.

As for `CC(C)(O)c1cn(-c2ccc(-c3cc(F)c(CO)c(S(C)(=O)=O)c3)cc2F)c(C(C)(C)c2c(Cl)cccc2Cl)n1` [Compound I, 2-(2-(2-(2,6-dichlorophenyl)propan-2-yl)-1-(3,3′-difluoro-4′-(hydroxymethyl)-5′-(methylsulfonyl)-[1,1′-biphenyl]-4-yl)-1H-imidazol-4-yl)propan-2-ol], in assay [1], the EC50 was more than 18000 nM and the Emax was 43.3%. In assay [2], the EC50 came to 4520 nM and the Emax was 60.2%.

Regarding `CCN(Cc1ccccc1)c1ccc(C(O)(C(F)(F)F)C(F)(F)F)cc1Cl` [Compound J, 2-(4-(benzyl(ethyl)amino)-3-chlorophenyl)-1,1,1,3,3,3-hexafluoropropan-2-ol], in assay [1], the EC50 turned out to be 323 nM and the Emax stood at 77.5%. Further, in assay [2], the EC50 amounted to 1470 nM and the Emax stood at 58%.

For the compound `CN(C)C(=O)c1ccc(-c2cnc(N3CCN(C(=O)C(C)(C)c4ccccc4)CC3)c(C#N)c2)cc1Cl` [Compound K, 2-chloro-4-(5-cyano-6-(4-(2-methyl-2-phenylpropanoyl)piperazin-1-yl)pyridin-3-yl)-N,N-dimethylbenzamide], in assay [1], the EC50 turned out to be 538 nM and the Emax stood at 66%. In assay [2], the EC50 is 458 nM and the Emax was 151%.

In the case of `Fc1ccc(-c2c3cccc(C(F)(F)F)c3nn2Cc2ccc(F)cc2Cl)cc1` [Compound L, 2-(2-chloro-4-fluorobenzyl)-3-(4-fluorophenyl)-7-(trifluoromethyl)-2H-indazole], the EC50 is more than 18000 nM in assay [1] and more than 10000 nM in assay [2]. The Emax in assay [1] worked out at 48.4%; in assay [2], 33.3%.

In the case of `CN(C)C(=O)c1ccc(N2CCC(C3CCN(S(=O)(=O)c4ccccc4Cl)CC3)CC2)cc1Cl` [Compound M, 2-chloro-4-(1′-((2-chlorophenyl)sulfonyl)-[4,4′-bipiperidin]-1-yl)-N,N-dimethylbenzamide], the EC50 in assay [1] is more than 18000 nM; in assay [2] it was more than 10000 nM. Besides, the Emax in assay [1] is 39.1%; in assay [2], 29.2%.

Consider `CC(C)[C@@H]1c2nc3cc(CO)c(S(C)(=O)=O)cc3n2CCN1c1ncc(C(C)(C)O)c(C(F)(F)F)n1` [Compound N, (R)-2-(2-(8-(hydroxymethyl)-1-isopropyl-7-(methylsulfonyl)-3,4-dihydrobenzo[4,5]imidazo[1,2-a]pyrazin-2(1H)-yl)-4-(trifluoromethyl)pyrimidin-5-yl)propan-2-ol], for which, in assay [1], the EC50 was determined as 4 nM and the Emax came out at 72.4%. For the same compound, in assay [2], the EC50 was 52 nM and the Emax is 165%.

The values are drawn from US20220257596A1, “METHODS FOR TREATING MEIBOMIAN GLAND DYSFUNCTION WITH LIVER X RECEPTOR AGONISTS” (Novartis AG, priority 2019, published 2022).
